# Measured values reported in patent publication US12552753B2, “Methods and compositions for targeting Tregs using CCR8 inhibitors” (Nanjing Immunophage Biomedical Co., Ltd., priority 2020, dated 2026).
# Target: CCR8 (Homo sapiens, UniProt P51685)
# Test: Tango assay (Tango-CCR8-Gal4-CHO-K1 cells, CCL1-stimulated, ONE-Glo luminescence)
# Details: Tango Assay IC50, Inhibition of CCR8 Tango cell in vitro
# Chain of CCR8 (P51685 whole entry, the tested form may be a part): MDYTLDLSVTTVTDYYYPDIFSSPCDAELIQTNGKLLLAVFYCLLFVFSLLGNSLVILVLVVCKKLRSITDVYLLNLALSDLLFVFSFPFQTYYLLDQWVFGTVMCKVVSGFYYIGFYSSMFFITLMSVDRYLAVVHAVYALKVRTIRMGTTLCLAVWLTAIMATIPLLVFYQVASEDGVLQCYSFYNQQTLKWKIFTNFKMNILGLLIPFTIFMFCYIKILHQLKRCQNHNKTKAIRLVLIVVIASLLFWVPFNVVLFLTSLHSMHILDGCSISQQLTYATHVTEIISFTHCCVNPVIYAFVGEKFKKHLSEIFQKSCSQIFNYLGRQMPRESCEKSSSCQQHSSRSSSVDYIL
row,Compound,IC50 [nM]
1,"Cc1ccccc1C(=O)Nc1ccc(S(=O)(=O)NC(C)C2CC3CCC2CC3)c2ccccc12 (centres unmarked) [Compound 77, N-(4-(N-(1-(bicyclo[2.2.2]octan-2-yl)ethyl)sulfamoyl)naph-thalen-1-yl)-2-methylbenzamide]",0.4
2,"CC(NS(=O)(=O)c1ccc2[nH]cnc2c1)C1CCCCC1 (centres unmarked) [Compound 78, N-(1-cyclohexylethyl)-1H-benzo[d]imidazole-5-sulfonamide]",> 10000
3,"CC(NS(=O)(=O)c1ccc2[nH]ncc2c1)C1CCCCC1 (centres unmarked) [Compound 79, N-(1-cyclohexylethyl)-1H-indazole-5-sulfonamide]",> 1000
4,"CC(NS(=O)(=O)c1ccc2[nH]c(=O)[nH]c2c1)C1CCCCC1 (centres unmarked) [Compound 80, N-(1-cyclohexylethyl)-2-oxo-2,3-dihydro-1H-benzo[d]imidazole-5-sulfonamide]",> 10000
5,"Cc1ccccc1C(=O)Nc1ccc(S(=O)(=O)NC(C)C(C)C)c2ccccc12 (centres unmarked) [Compound 81, 2-methyl-N-(4-(N-(3-methylbutan-2-yl)sulfamoyl)naphthalen-1-yl)benzamide]",142
6,"Cc1ccccc1C(=O)Nc1ccc(S(=O)(=O)NC(C)C(C)(C)C)c2ccccc12 (centres unmarked) [Compound 82, N-(4-(N-(3,3-dimethylbutan-2-yl)sulfamoyl)naphthalen-1-yl)-2-methylbenzamide]",33
7,"Cc1ccccc1C(=O)Nc1ccc(S(=O)(=O)NC(C)C(=O)N2CCC(C)CC2)c2ccccc12 (centres unmarked) [Compound 83, 2-methyl-N-(4-(N-(1-(4-methylpiperidin-1-yl)-1-oxopropan-2-yl)sulfamoyl)naphthalen-1-yl)benzamide]",> 10000
8,"Cc1ccccc1C(=O)Nc1ccc(S(=O)(=O)NC(C)C23CC4CC(CC(C4)C2)C3)c2ccccc12 (centres unmarked) [Compound 84, N-(4-(N-(1-((3r,5r,7r)-adamantan-1-yl)ethyl)sulfamoyl)naph-thalen-1-yl)-2-methylbenzamide]",0.2
9,"Cc1ccccc1C(=O)Nc1ccc(S(=O)(=O)NC2CCc3nc(N)sc3C2)c2ccccc12 (centres unmarked) [Compound 85, N-(4-(N-(2-amino-4,5,6,7-tetrahydrobenzo[d]thia-zol-6-yl)sulfamoyl)naphthalen-1-yl)-2-methylbenzamide]",351
10,"CC(=O)N1CCOC(C(C)NS(=O)(=O)c2ccc(NC(=O)c3ccccc3C)c3ccccc23)C1 (centres unmarked) [Compound 86, N-(4-(N-(1-(4-acetylmorpholin-2-yl)ethyl)sulfamoyl)naph-thalen-1-yl)-2-methylbenzamide]",2300
11,"CC(=O)NC1CCc2cc(S(=O)(=O)NC(C)C3CCCCC3)ccc21 (centres unmarked) [Compound 87, N-(5-(N-(1-cyclohexylethyl)sulfam-oyl)-2,3-dihydro-1H-inden-1-yl)acetamide]",> 10000
12,"CC(NS(=O)(=O)c1ccc2c(c1)CCC2NC(=O)c1ccccc1)C1CCCCC1 (centres unmarked) [Compound 88, N-(5-(N-(1-cyclohexylethyl)sulfam-oyl)-2,3-dihydro-1H-inden-1-yl)benzamide]",1100
13,"Cc1ccccc1C(=O)Nc1ccc(S(=O)(=O)NC2CCC23CCN(C(=O)OC(C)(C)C)CC3)c2ccccc12 (centres unmarked) [Compound 89, tert-butyl 1-(4-(2-methylbenzamido)naph-thalene-1-sulfonamido)-7-azaspiro[3.5]nonane-7-carboxylate]",620
14,"Cc1ccccc1C(=O)Nc1ccc(S(=O)(=O)NC2CCC23CCNCC3)c2ccccc12 (centres unmarked) [Compound 90, N-(4-(N-(7-azaspiro[3.5]nonan-1-yl)sulfamoyl)naphthalen-1-yl)-2-methylbenzamide]",> 10000
15,"CCCN1CCN(c2cc(NS(=O)(=O)c3ccc(NC(=O)c4ccccc4C)c4ccccc34)ccc2C(=O)O)CC1 [Compound 91, 4-(4-(2-methylbenzamido)naph-thalene-1-sulfonamido)-2-(4-propylpiperazin-1-yl)benzoic acid]",> 10000
16,"CCCN1CCN(c2c(F)cccc2NS(=O)(=O)c2ccc(NC(=O)c3ccccc3C)c3ccccc23)CC1 [Compound 92, N-(4-(N-(3-fluoro-2-(4-propylpiperazin-1-yl)phenyl)sulfamoyl)naphthalen-1-yl)-2-methylbenzamide]",> 10000
17,"CCCN1CCN(c2ccc(C)c(NS(=O)(=O)c3ccc(NC(=O)c4ccccc4C)c4ccccc34)c2)CC1 [Compound 93, 2-methyl-N-(4-(N-(2-methyl-5-(4-propylpiperazin-1-yl)phenyl)sulfamoyl)naphthalen-1-yl)benzamide]",> 10000
18,"CCCN1CCN(c2ccc(F)c(NS(=O)(=O)c3ccc(NC(=O)c4ccccc4C)c4ccccc34)c2)CC1 [Compound 95, N-(4-(N-(2-fluoro-5-(4-propylpiperazin-1-yl)phenyl)sulfamoyl)naphthalen-1-yl)-2-methylbenzamide]",> 10000
19,"Cc1ccccc1C(=O)Nc1ccc(S(=O)(=O)Nc2ccc3c(c2)C(N(C)C(=O)CN(C)C)CCC3)c2ccccc12 (centres unmarked) [Compound 97, N-(4-(N-(8-(2-(dimethylamino)-N-methylacetamido)-5,6,7,8-tetrahydronaphthalen-2-yl)sulfamoyl)naphthalen-1-yl)-2-methylbenzamide]",> 10000

row,Compound,IC50 [nM]
1,"Cc1ccccc1C(=O)Nc1ccc(S(=O)(=O)Nc2ccc3c(c2)C(N(C)C(=O)CN(C)C)CC3)c2ccccc12 (centres unmarked) [Compound 98, N-(4-(N-(3-(2-(dimethylamino)-N-methylacetamido)-2,3-dihydro-1H-inden-5-yl)sulfamoyl)naphthalen-1-yl)-2-methylbenzamide]",> 10000
2,"Cc1ccccc1C(=O)Nc1ccc(S(=O)(=O)Nc2ccc3c(c2)C(N(C)CCN(C)C)CCC3)c2ccccc12 (centres unmarked) [Compound 99, N-(4-(N-(8-((2-(dimethylamino)ethyl)(methyl)amino)-5,6,7,8-tetrahydronaphthalen-2-yl)sulfamoyl)naphthalen-1-yl)-2-methylbenzamide]",> 10000
3,"CN1CCCN(C(=O)C23CC(NS(=O)(=O)c4ccc5ccccc5c4)(C2)C3)CC1 [Compound 100, N-(3-(4-methyl-1,4-diazepane-1-carbonyl)bicyclo[1.1.1]pentan-1-yl)naphthalene-2-sulfonamide]",> 10000
4,"CC(C)(C)OC(=O)N1CCC(NS(=O)(=O)c2ccc(-c3nc4ccccc4[nH]3)cc2)CC1 [Compound 102, tert-butyl 4-(4-(1H-benzo[d]imidazol-2-yl)phenylsulfonamido) piperidine-1-carboxylate]",> 10000
5,"CN1CCN(C(=O)N2CCC(NS(=O)(=O)c3ccc(-c4nc5ccccc5[nH]4)cc3)CC2)CC1 [Compound 103, 4-(1H-benzo[d]imidazol-2-yl)-N-(1-(4-methylpiperazine-1-carbonyl)piperidin-4-yl)benzenesulfonamide]",310
6,"C[C@H](N)C(=O)N1CCC(NS(=O)(=O)c2ccc(-c3nc4ccccc4[nH]3)cc2)CC1 [Compound 104, (S)-N-(1-(2-aminopropanoyl)piperi-din-4-yl)-4-(1H-benzo[d]imidazol-2-yl)benzenesulfonamide]",258
7,"CCCC(=O)N1CCC(NS(=O)(=O)c2ccc(-c3nc4ccccc4[nH]3)cc2)CC1 [Compound 106, 4-(1H-benzo[d]imidazol-2-yl)-N-(1-butyrylpiperidin-4-yl)benzenesulfonamide]",1140
8,"CCCC(=O)N1CCC(NS(=O)(=O)c2ccc(-c3nc4ccccc4[nH]3)c3ccccc23)CC1 [Compound 107, 4-(1H-benzo[d]imidazol-2-yl)-N-(1-butyrylpiperidin-4-yl)naphthalene-1-sulfonamide]",913
9,"O=S(=O)(NC1CCCCC1)c1ccc(-c2nc3ccccc3[nH]2)cc1 [Compound 108, 4-(1H-benzo[d]imidazol-2-yl)-N-cyclohexylbenzenesulfon-amide]",> 10000
10,"O=S(=O)(NC1CCOCC1)c1ccc(-c2nc3ccccc3[nH]2)cc1 [Compound 109, 4-(1H-benzo[d]imidazol-2-yl)-N-(tetrahydro-2H-pyran-4-yl)benzenesulfonamide]",> 10000
11,"Cc1ccccc1NC(=O)c1ccc(S(=O)(=O)NC(C)C2CCCCC2)cc1 (centres unmarked) [Compound 111, 4-(N-(1-cyclohexylethyl)sulfam-oyl)-N-(o-tolyl)benzamide]",> 10000
12,"Cc1ccccc1NC(=O)c1ccc(S(=O)(=O)N[C@H](C)C2CCN(C(=O)OC(C)(C)C)CC2)cc1C [Compound 112, (R)-tert-butyl 4-(1-(3-methyl-4-(o-tolylcarbamoyl)phenyl-sulfonamido)ethyl)piperi-dine-1-carboxylate]",> 10000
13,"Cc1ccccc1NC(=O)c1ccc(S(=O)(=O)N[C@H](C)C2CCNCC2)cc1C [Compound 113A, (R)-2-methyl-4-(N-(1-(piperidin-4-yl)ethyl)sulfamoyl)-N-(o-tolyl)benzamide]",388
14,"CCCC(=O)N1CCC(NS(=O)(=O)c2ccc(Nc3nccc4ccccc34)c3ccccc23)CC1 [Compound 114, N-(1-butyrylpiperidin-4-yl)-4-(isoquinolin-1-ylamino)naphthalene-1-sulfonamide]",> 10000
15,"CCCC(=O)N1CCC(NS(=O)(=O)c2ccc(Nc3ncnc4ccccc34)c3ccccc23)CC1 [Compound 115, N-(1-butyrylpiperidin-4-yl)-4-(quinazolin-4-ylamino)naphthalene-1-sulfonamide]",1500
16,"CCCC(=O)N1CCC(NS(=O)(=O)c2ccc(Nc3cc(C)ncn3)c3ccccc23)CC1 [Compound 116, N-(1-butyrylpiperidin-4-yl)-4-((6-methylpyrimidin-4-yl)amino)naphthalene-1-sulfonamide]",> 10000
17,"CCCC(=O)N1CCC(NS(=O)(=O)c2ccc(Nc3nccc(C)n3)c3ccccc23)CC1 [Compound 117, N-(1-butyrylpiperidin-4-yl)-4-((4-methylpyrimidin-2-yl)amino)naphthalene-1-sulfonamide]",1650
18,"CCCC(=O)N1CCC(NS(=O)(=O)c2ccc(N3C(=O)c4ccccc4C3=O)cc2)CC1 [Compound 118, N-(1-butyrylpiperidin-4-yl)-4-(1,3-dioxoisoindolin-2-yl)benzenesulfonamide]",> 10000

# Same assay, conditions: read-out: Tango Assay IC50, Inhibition of CCR8 Tango cell in vitro
row,Compound,IC50 [nM]
1,"Cc1ccccc1C(=O)Nc1ccc(S(=O)(=O)Nc2ccc3c(c2)C(=O)N(CCN(C)C)CCO3)c2ccccc12 [Compound 96, N-(4-(N-(4-(2-(dimethylamino)ethyl)-5-oxo-2,3,4,5-tetrahydrobenzo[f][1,4]oxazepin-7-yl)sulfamoyl)naphthalen-1-yl)-2-methylbenzamide]",> 10000
